Experimental data reported in ChEMBL document CHEMBL1137136, “Change in liver and plasma ceramides during D-galactosamine-induced acute hepatic injury by LC-MS/MS” (2004).
“And” between values parts separate entries of the source, which are not always exact repeats. Equal entries are not always repeated.

Experiments:
Assay type in all cases: functional
Rattus norvegicus [1] = assay: Plasma GOT level was observed after 18 hr of D-galactosamine administration at 1 g/kg intraperitoneally
Rattus norvegicus [2] = assay: Concentration of C24:0 ceramide in liver of D-galactosamine treated rats after 24 hr at dose of 1 g/kg intraperitoneally
Rattus norvegicus [3] = assay: Concentration of C18:0 ceramide in liver of D-galactosamine treated rats after 24 hr at dose of 1 g/kg intraperitoneally
Rattus norvegicus [4] = assay: Concentration of C22:2 ceramide in liver of D-galactosamine treated rats after 24 hr at dose of 1 g/kg intraperitoneally
Rattus norvegicus [5] = assay: Concentration of C24:0 ceramide in plasma of D-galactosamine treated rats after 24 hr at dose of 1 g/kg intraperitoneally
Rattus norvegicus [6] = assay: Concentration of C22:1 ceramide in liver of D-galactosamine treated rats after 18 hr at dose of 1 g/kg intraperitoneally
Rattus norvegicus [7] = assay: Concentration of C24:2 ceramide in liver of D-galactosamine treated rats after 24 hr at dose of 1 g/kg intraperitoneally
Rattus norvegicus [8] = assay: Plasma GPT level was observed after 24 hr of D-galactosamine administration at 1 g/kg intraperitoneally
Rattus norvegicus [9] = assay: Concentration of C18:0 ceramide in plasma of D-galactosamine treated rats after 24 hr at dose of 1 g/kg intraperitoneally
Rattus norvegicus [10] = assay: Concentration of C24:1 ceramide in plasma of D-galactosamine treated rats after 24 hr at dose of 1 g/kg intraperitoneally
Rattus norvegicus [11] = assay: Concentration of C22:1 ceramide in plasma of D-galactosamine treated rats after 18 hr at dose of 1 g/kg intraperitoneally
Rattus norvegicus [12] = assay: Concentration of C24:0 ceramide in plasma of D-galactosamine treated rats after 18 hr at dose of 1 g/kg intraperitoneally
Rattus norvegicus [13] = assay: Concentration of C20:0 ceramide in liver of D-galactosamine treated rats after 18 h at dose of 1 g/kg intraperitoneally
Rattus norvegicus [14] = assay: Concentration of C16:0 ceramide in liver of D-galactosamine treated rats after 18 hr at dose of 1 g/kg intraperitoneally
Rattus norvegicus [15] = assay: Concentration of C16:0 ceramide in plasma of D-galactosamine treated rats after 24 hr at dose of 1 g/kg intraperitoneally
Rattus norvegicus [16] = assay: Concentration of C22:1 ceramide in liver of D-galactosamine treated rats after 24 hr at dose of 1 g/kg intraperitoneally
Rattus norvegicus [17] = assay: Concentration of C24:0 ceramide in liver of D-galactosamine treated rats after 18 hr at dose of 1 g/kg intraperitoneally
Rattus norvegicus [18] = assay: Concentration of C20:0 ceramide in plasma of D-galactosamine treated rats after 24 hr at dose of 1 g/kg intraperitoneally
Rattus norvegicus [19] = assay: Concentration of C16:0 ceramide in plasma of D-galactosamine treated rats after 18 h at dose of 1 g/kg intraperitoneally
Rattus norvegicus [20] = assay: Concentration of C24:1 ceramide in liver of D-galactosamine treated rats after 24 hr at dose of 1 g/kg intraperitoneally
Rattus norvegicus [21] = assay: Concentration of C24:1 ceramide in liver of D-galactosamine treated rats after 18 hr at dose of 1 g/kg intraperitoneally
Rattus norvegicus [22] = assay: Concentration of C18:0 ceramide in liver of D-galactosamine treated rats after 18 hr at dose of 1 g/kg intraperitoneally
Rattus norvegicus [23] = assay: Concentration of C22:2 ceramide in liver of D-galactosamine treated rats after 18 hr at dose of 1 g/kg intraperitoneally
Rattus norvegicus [24] = assay: Plasma GPT level was observed after 18 hr of D-galactosamine administration at 1 g/kg intraperitoneally
Rattus norvegicus [25] = assay: Concentration of C20:0 ceramide in liver of D-galactosamine treated rats after 24 hr at dose of 1 g/kg intraperitoneally
Rattus norvegicus [26] = assay: Concentration of C22:0 ceramide in liver of D-galactosamine treated rats after 18 hr at dose of 1 g/kg intraperitoneally
Rattus norvegicus [27] = assay: Concentration of C22:0 ceramide in liver of D-galactosamine treated rats after 24 hr at dose of 1 g/kg intraperitoneally
Rattus norvegicus [28] = assay: Concentration of C24:2 ceramide in liver of D-galactosamine treated rats after 18 hr at dose of 1 g/kg intraperitoneally
Rattus norvegicus [29] = assay: Concentration of C20:0 ceramide in plasma of D-galactosamine treated rats after 18 hr at dose of 1 g/kg intraperitoneally
Rattus norvegicus [30] = assay: Concentration of C22:2 ceramide in plasma of D-galactosamine treated rats after 24 hr at dose of 1 g/kg intraperitoneally
Rattus norvegicus [31] = assay: Plasma GOT level was observed after 24 hr of D-galactosamine administration at 1 g/kg intraperitoneally
Rattus norvegicus [32] = assay: Concentration of C16:0 ceramide in liver of D-galactosamine treated rats after 24 hr at dose of 1 g/kg intraperitoneally
Rattus norvegicus [33] = assay: Concentration of C18:0 ceramide in plasma of D-galactosamine treated rats after 18 h at dose of 1 g/kg intraperitoneally
Rattus norvegicus [34] = assay: Concentration of C22:2 ceramide in plasma of D-galactosamine treated rats after 18 hr at dose of 1 g/kg intraperitoneally
Rattus norvegicus [35] = assay: Concentration of C24:1 ceramide in plasma of D-galactosamine treated rats after 18 hr at dose of 1 g/kg intraperitoneally
Rattus norvegicus [36] = assay: Concentration of C24:2 ceramide in plasma of D-galactosamine treated rats after 18 hr at dose of 1 g/kg intraperitoneally

N[C@H]1C(O)O[C@H](CO)[C@@H](O)[C@@H]1O (stereo partly specified) [GLUCOSAMINE]
Activity (Rattus norvegicus [1]): 2516 Karmen | Activity (Rattus norvegicus [2]): 166.3 nmol/g tissue | Activity (Rattus norvegicus [3]): 11.5 nmol/g tissue | Activity (Rattus norvegicus [4]): 7 nmol/g tissue | Activity (Rattus norvegicus [5]): 26.31 nmol/g tissue | Activity (Rattus norvegicus [6]): 4.6 nmol/g tissue | Activity (Rattus norvegicus [7]): 12.4 nmol/g tissue | Activity (Rattus norvegicus [8]): 7280 Karmen | Activity (Rattus norvegicus [9]): 0.9 nmol/g tissue | Activity (Rattus norvegicus [10]): 13.83 nmol/g tissue | Activity (Rattus norvegicus [11]): 5.45 nmol/g tissue | Activity (Rattus norvegicus [12]): 6.31 nmol/g tissue | Activity (Rattus norvegicus [13]): 3.9 nmol/g tissue | Activity (Rattus norvegicus [14]): 43.9 nmol/g tissue | Activity (Rattus norvegicus [15]): 3.13 nmol/g tissue | Activity (Rattus norvegicus [16]): 7.1 nmol/g tissue | Activity (Rattus norvegicus [17]): 173.7 nmol/g tissue | Activity (Rattus norvegicus [18]): 0.65 nmol/g tissue | Activity (Rattus norvegicus [19]): 1.06 nmol/g tissue | Activity (Rattus norvegicus [20]): 67.2 nmol/g tissue | Activity (Rattus norvegicus [21]): 59.6 nmol/g tissue | Activity (Rattus norvegicus [22]): 11.1 nmol/g tissue | Activity (Rattus norvegicus [23]): 4.8 nmol/g tissue | Activity (Rattus norvegicus [24]): 1208 Karmen | Activity (Rattus norvegicus [25]): 5.6 nmol/g tissue | Activity (Rattus norvegicus [26]): 37.8 nmol/g tissue | Activity (Rattus norvegicus [27]): 35.6 nmol/g tissue | Activity (Rattus norvegicus [28]): 12.4 nmol/g tissue | Activity (Rattus norvegicus [29]): 0.42 nmol/g tissue | Activity (Rattus norvegicus [30]): 2.33 nmol/g tissue | Activity (Rattus norvegicus [31]): 18480 Karmen | Activity (Rattus norvegicus [32]): 36.2 nmol/g tissue | Activity (Rattus norvegicus [33]): 0.18 nmol/g tissue | Activity (Rattus norvegicus [34]): 2.57 nmol/g tissue | Activity (Rattus norvegicus [35]): 5.78 nmol/g tissue | Activity (Rattus norvegicus [36]): 0.98 nmol/g tissue and 1.94 nmol/g tissue
